Assay results from patent publication US9428507B2, “Compounds for the treatment of malaria” (The Broad Institute, Inc., priority 2013, dated 2016).

System: Dd2 strain of P. falciparum
Assay: Activity against the Dd2 strain of P. falciparum (SYBR Green I, 72-h incubation)
Type: cell-based
Conditions: Plasmodium falciparum, DD2, 72 h, read-out: EC^50 Dd2
Procedure: The Dd2 strain of P. falciparum was cultured in complete medium (RPMI with L-glutamine, 4.3% heat-inactivated O-positive human serum, 2.08 mg/ml albumax, 0.013 mg/ml hypoxanthine, 1.17 mg/ml glucose, 0.18% NaHCO3, 0.031 M Hepes, 2.60 mM NaOH, and 0.043 mg/ml gentamicin) until the parasitemia reached 3-8%. Parasitemia was determined by checking at least 500 red blood cells from a Giemsa-stained blood smear. The Dd2 cultures along with tested O-positive red blood cells are centrifuged at room temperature at 2,000 rpm for 5 min using an Eppendorf centrifuge 581 OR with an A-4-81 rotor. The medium was aspirated off. For the compound screening, a parasite dilution at a 1% parasitemia and 1.0% hematocrit was created with screening medium (RPMI with L-glutamine, 4.16 mg/ml albumax II, 0.013 mg/ml hypoxanthine, 1.73 mg/ml glucose, 0.18% NaHCO3, 0.031M Hepes, 2.60 mM NaOH, and 0.043 mg/ml gentamicin). The suspension was gassed with 93% nitrogen, 4% carbon dioxide, and 3% oxygen and placed at 37° C. until needed. Using a liquid dispenser, 20 μl of screening medium was dispensed into 384-well, black, clear-bottom plates. With a PinTool, 100 nl of compounds dissolved in DMSO was transferred into the assay plates along with control compound (mefloquine). Next, 30 μl of the parasite suspension in screening medium was then dispensed into the assay plates such that the final parasitemia was 1%, and the final hematocrit was 1.0%. Final concentration of DMSO was 0.125%. Mefloquine at a final concentration of 20 μM and DMSO at a final concentration of 0.125% were used within the assay plates to serve as background and baseline controls, respectively. The assay plates were transferred to incubators (93% nitrogen, 4% carbon dioxide, and 3% oxygen during the 72-h incubation at 37° C.). Ten microliters of detection reagent consisting of 1 OX SYBR Green I (Invitrogen; supplied in 10,000× concentration) in lysis buffer (20 mM Tris-HCl, 5 mM EDTA, 0.16% Saponin wt/vol, 1.6% Triton X vol/vol) was dispensed into the assay plates. For optimal staining, the assay plates were left at room temperature for 24 h in the dark. The assay plates were read by using an Envision (PerkinElmer) reader, with 505 dichroic mirrors with 485-nm excitation and 530-nm emission settings, and the plate reads were from the bottom.

Structure (SMILES)	EC50 [nM]
COc1ccc2c3c([nH]c2c1)[C@H](CO)N(C(=O)C1CCCCC1)CC31CCN(Cc2nccs2)CC1 [Compound 103, (R)-cyclohexyl (1′-(hydroxymethyl)-7′-methoxy-1-(thiazol-2-ylmethyl)spiro[piperidine-4,4′-pyrido[3,4-b]indol]-2′(1′H,3′H,9′H)-yl)methanone]	182
CCS(=O)(=O)N1CC2(CCN(C(=O)OC(C)(C)C)CC2)c2c([nH]c3cc(OC)ccc23)[C@@H]1CO [Compound 148, (R)-tert-butyl 2′-(ethylsulfonyl)-1′-(hydroxymethyl)-7′-methoxy-1′,2′,3′,9′-tetrahydrospiro [piperidine-4,4′-pyrido[3,4-b]indole]-1-carboxylate]	8530
CCCC(=O)N1CCC2(CC1)CN(S(=O)(=O)c1ccc(C)cc1)[C@@H](CO)c1[nH]c3cc(OC)ccc3c12 [Compound 98, (R)-1-(1′-(hydroxymethyl)-7′-methoxy-2′-tosyl-1′,2′,3′,9′-tetrahydrospiro[piperidine-4,4′-pyrido[3,4-b]indol]-1-yl)butan-1-one]	98
COc1ccc2c3c(n(C)c2c1)[C@@H](CO)N(C(=O)C1CCCC1)CC31CN(C(=O)Nc2cccc(F)c2)C1 [Compound 99, (S)-2′-(cyclopentanecarbonyl)-N-(3-fluorophenyl)-1′-(hydroxymethyl)-7′-methoxy-9′-methyl-1′,2′,3′,9′-tetrahydrospiro [azetidine-3,4′-pyrido[3,4-b]indole]-1-carboxamide]	1880
COc1ccc2c3c(n(C)c2c1)[C@@H](CO)N(Cc1ccc(Cl)cc1)CC31CCN(CC2CC2)CC1 [Compound 132, (S)-(2′-(4-chlorobenzyl)-1-(cyclopropylmethyl)-7′-methoxy-9′-methyl-1′,2′,3′,9′-tetrahydrospiro [piperidine-4,4′-pyrido[3,4-b]indol]-1′-yl) methanol]	1670
COc1ccc2c3c([nH]c2c1)[C@@H](CO)N(Cc1cccc(F)c1)CC31CCN(Cc2ccccn2)CC1 [Compound 82, (S)-(2′-(3-fluorobenzyl)-7′-methoxy-1-(pyridin-2-ylmethyl)-1′,2′,3′,9′-tetrahydrospiro [piperidine-4,4′-pyrido[3,4-b]indol]-1′-yl)methanol]	1520
COc1ccc2c3c(n(C)c2c1)[C@@H](CO)N(C(=O)C1CCC1)CC31CN(C(=O)Nc2cccc(F)c2)C1 [Compound 110, (S)-2′-(cyclobutanecarbonyl)-N-(3-fluorophenyl)-1′-(hydroxymethyl)-7′-methoxy-9′-methyl-1′,2′,3′,9′-tetrahydrospiro [azetidine-3,4′-pyrido[3,4-b]indole]-1-carboxamide]	779
COc1ccc2c3c(n(C)c2c1)[C@@H](CO)NCC31CCN(Cc2ccc(-c3ccccn3)cc2)CC1 [Compound 130, (S)-(7′-methoxy-9′-methyl-1-(4-(pyridin-2-yl)benzyl)-1′,2′,3′,9′-tetrahydrospiro[piperidine-4,4′-pyrido[3,4-b]indol]-1′-yl)methanol]	439

Further lines, results first:

EC50 [nM]	Structure (SMILES)
269	COc1ccc2c3c([nH]c2c1)[C@H](CO)N(C(=O)Cc1ccccc1)CC31CCN(C(=O)Nc2ccccc2F)CC1 [Compound 105, (R)-N-(2-fluorophenyl)-1′-(hydroxymethyl)-7′-methoxy-2′-(2-phenylacetyl)-1′,2′,3′,9′-tetrahydrospiro [piperidine-4,4′-pyrido[3,4-b]indole]-1-carboxamide]
3040	COCOC[C@H]1c2[nH]c3cc(OC)ccc3c2C2(CCN(C(=O)Nc3ccccc3F)CC2)CN1C(C)=O [Compound 67, (R)-2′-acetyl-N-(2-fluorophenyl)-7′-methoxy-1′-((methoxymethoxy)methyl)-1′,2′,3′,9′-tetrahydrospiro [piperidine-4,4′-pyrido[3,4-b]indole]-1-carboxamide]
44 to 131	COc1ccc2c3c([nH]c2c1)[C@H](CO)N(C(C)=O)CC31CCN(C(=O)Nc2cccc(F)c2F)CC1 [Compound 45, (R)-2′-acetyl-N-(2,3-difluorophenyl)-1′-(hydroxymethyl)-7′-methoxy-1′,2′,3′,9′-tetrahydrospiro[piperidine-4,4′-pyrido[3,4-b]indole]-1-carboxamide]
2980	COc1ccc2c3c([nH]c2c1)[C@H](CO)N(C(=O)C1CC1)CC31CCN(C(=O)Nc2ccccc2F)CC1 [Compound 33, (R)-2′-(cyclopropanecarbonyl)-N-(2-fluorophenyl)-1′-(hydroxymethyl)-7′-methoxy-1′,2′,3′,9′-tetrahydrospiro[piperidine-4,4′-pyrido[3,4-b]indole]-1-carboxamide]
422	COc1ccc(COC[C@H]2c3[nH]c4cc(OC)ccc4c3C3(CCN(C(=O)Nc4ccccc4F)CC3)CN2C(C)=O)cc1 [Compound 66, (R)-2′-acetyl-N-(2-fluorophenyl)-7′-methoxy-1′-(((4-methoxybenzyl)oxy)methyl)-1′,2′,3′,9′-tetrahydrospiro[piperidine-4,4′-pyrido[3,4-b]indole]-1-carboxamide]
4610 to 5790	CCN1CC2(CCN(C(=O)Nc3ccccc3F)CC2)c2c([nH]c3cc(OC)ccc23)[C@@H]1CO [Compound 60, (R)-2′-ethyl-N-(2-fluorophenyl)-1′-(hydroxymethyl)-7′-methoxy-1′,2′,3′,9′-tetrahydrospiro [piperidine-4,4′-pyrido[3,4-b]indole]-1-carboxamide]
127 to 162	COc1ccc2c3c([nH]c2c1)[C@H](CO)N(C(C)=O)CC31CCN(C(=O)Nc2cccc(Cl)c2)CC1 [Compound 13, (R)-2′-acetyl-N-(3-chlorophenyl)-1′-(hydroxymethyl)-7′-methoxy-1′,2′,3′,9′-tetrahydrospiro [piperidine-4,4′-pyrido[3,4-b]indole]-1-carboxamide]
7140	C=CCOC(=O)N1CC2(CCN(C(=O)Oc3ccc([N+](=O)[O-])cc3)CC2)c2c([nH]c3cc(OC)ccc23)[C@@H]1CO [Compound 28, (R)-2′-allyl 1-(4-nitrophenyl) 1′-(hydroxymethyl)-7′-methoxy-3′,9′-dihydrospiro[piperidine-4,4′-pyrido[3,4-b]indole]-1,2′(1′H)-dicarboxylate]
2470	COc1ccc2c3c([nH]c2c1)[C@H](CO)N(C(C)=O)CC31CCN(c2nc3ccccc3[nH]2)CC1 [Compound 136, (R)-1-(1-(1H-benzo[d]imidazol-2-yl)-1′-(hydroxymethyl)-7′-methoxyspiro[piperidine-4,4′-pyrido[3,4-b]indol]-2′(1′H,3′H,9′H)-yl) ethanone]
577	COc1ccc2c3c([nH]c2c1)[C@H](CO)N(C(C)=O)CC31CCN(C(=O)Nc2cccc(F)c2)CC1 [Compound 37, (R)-2′-acetyl-N-(3-fluorophenyl)-1′-(hydroxymethyl)-7′-methoxy-1′,2′,3′,9′-tetrahydrospiro[piperidine-4,4′-pyrido[3,4-b]indole]-1-carboxamide]
2210	CCC(=O)N1CCC2(CC1)CN(Cc1cccc(OC)c1)[C@@H](CO)c1[nH]c3cc(OC)ccc3c12 [Compound 107, (R)-1-(1′-(hydroxymethyl)-7′-methoxy-2′-(3-methoxybenzyl)-1′,2′,3′,9′-tetrahydrospiro [piperidine-4,4′-pyrido[3,4-b]indol]-1-yl)propan-1-one]
